Laboratory results reported in ChEMBL document CHEMBL4229466, “Conformational Propensity and Biological Studies of Proline Mutated LR Peptides Inhibiting Human Thymidylate Synthase and Ovarian Cancer Cell Growth” (J Med Chem, 2018).
The source made the active and inactive calls. The calls are words filed in the database; no cut-off is given here. Non-standard residues stand in square brackets, D forms with d. Residues, ends and D or L forms follow the SMILES beside them.

Experiments:
[1] = system: IGROV-1; test: Cytotoxicity against human IGROV1 cells after 72 hrs; format: functional, cell-based; conditions: IGROV-1, 72 h
[2] = system: 2008; test: Cytotoxicity against human 2008 cells; format: functional, cell-based
[3] = system: C13; test: Cytotoxicity against human C13 cells after 72 hrs; format: functional, cell-based; conditions: C13, 72 h
[4] = molecular target: Thymidylate synthase (Homo sapiens) (UniProt P04818); test: Inhibition of thymidylate synthase in human IGROV1 cell lysate using [5-3H]dUMP as substrate assessed as decrease in residual activity at 5 uM after 60 mins by liquid scintillation counting analysis relative to control
[5] = system: IGROV-1; test: Effect on TS protein expression in human IGROV1 cells by Western blot analysis; format: functional, cell-based
[6] = system: IGROV-1; test: Effect on DHFR protein expression in human IGROV1 cells by Western blot analysis; format: functional, cell-based
[7] = system: IGROV-1; test: Effect on HSP90 protein expression in human IGROV1 cells by Western blot analysis; format: functional, cell-based
[8] = system: IGROV-1; test: Downregulation of TRAP1 protein levels in human IGROV1 cells by Western blot analysis; format: functional, cell-based

Chain of Thymidylate synthase (Homo sapiens) (P04818 2-313 limits assumed): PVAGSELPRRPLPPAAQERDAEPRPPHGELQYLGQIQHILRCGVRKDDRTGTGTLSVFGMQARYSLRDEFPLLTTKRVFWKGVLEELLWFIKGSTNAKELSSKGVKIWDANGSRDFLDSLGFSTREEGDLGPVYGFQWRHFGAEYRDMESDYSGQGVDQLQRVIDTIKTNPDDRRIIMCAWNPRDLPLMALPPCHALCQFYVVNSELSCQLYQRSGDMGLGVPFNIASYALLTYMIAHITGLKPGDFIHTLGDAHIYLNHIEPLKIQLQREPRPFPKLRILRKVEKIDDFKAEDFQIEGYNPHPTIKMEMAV

| Compound | IC50 [1] | IC50 [2] | IC50 [3] | inhibition [4] | Activity [5] | Activity [6] | Activity [7] | Activity [8] |
| --- | --- | --- | --- | --- | --- | --- | --- | --- |
| H-LSPQLYQR-OH | 6.2 µM | 0.96 to 1.57 µM | 3.55 to 8.1 µM | 25% | Active | Active | Active | – |
| H-LSCPLYQR-OH | 4.32 to 12.1 µM | 0.96 to 1.57 µM | 3.55 to 8.1 µM | 25% | Active | Active | Active | Active |
| CC(C)C[C@H](NC(=O)[C@@H](CCC(N)=O)NC(=O)[C@H](CS)NC(=O)[C@H](CO)NC(=O)[C@@H](N)CC(C)C)C(=O)N[C@@H](Cc1ccc(O)cc1)C(=O)N[C@@H](CCC(N)=O)C(=O)N[C@@H](CCCNC(=N)N)C(=O)O (H-LSC[dQ]LYQR-OH) | – | – | – | – | – | – | – | Active |
| O=c1[nH]cc(F)c(=O)[nH]1 [FLUOROURACIL] | 10.6 µM | 6 µM | 12.1 µM | Active | – | – | – | – |
| Nc1nc2[nH]cc(CCc3ccc(C(=O)N[C@@H](CCC(=O)O)C(=O)O)cc3)c2c(=O)[nH]1 | – | – | – | – | Active | Active | Active | – |
| H-LSCQLYQR-OH | 8.2 µM | 4.6 µM | 9.5 µM | – | – | – | – | – |
| H-LSCQLYPR-OH | 4.32 µM | 0.96 to 1.57 µM | 3.55 to 8.1 µM | > 30% | – | – | – | – |
